Tests used:
Set-up in all cases: Cerep Bioprint off-target panel, functional receptor agonism or antagonism
[1] = target: T1, Cannabinoid CB1 (Homo sapiens, UniProt P21554)
T1 construct: gene CNR1
Procedure: (§1) To discover a potent and selective BDK inhibitor, a subset of the Pfizer compound collection was screened. […] Off target activity was assessed in both CEREP and kinase panels (Supplementary Tables 2, 3).

[2] = target: T2, Serotonin 5-HT1a Receptor (Homo sapiens, UniProt P08908); conditions: agonist
T2 construct: gene HTR1A
Procedure: as §1

[3] = target: T3, Cholecystokinin 2 (Homo sapiens, UniProt P32239); conditions: agonist
T3 construct: gene CCKBR
Procedure: as §1

[4] = target: T4, Muscarinic 1 (Homo sapiens, UniProt P11229)
T4 construct: gene CHRM1
T4 sequence (P11229 1-460): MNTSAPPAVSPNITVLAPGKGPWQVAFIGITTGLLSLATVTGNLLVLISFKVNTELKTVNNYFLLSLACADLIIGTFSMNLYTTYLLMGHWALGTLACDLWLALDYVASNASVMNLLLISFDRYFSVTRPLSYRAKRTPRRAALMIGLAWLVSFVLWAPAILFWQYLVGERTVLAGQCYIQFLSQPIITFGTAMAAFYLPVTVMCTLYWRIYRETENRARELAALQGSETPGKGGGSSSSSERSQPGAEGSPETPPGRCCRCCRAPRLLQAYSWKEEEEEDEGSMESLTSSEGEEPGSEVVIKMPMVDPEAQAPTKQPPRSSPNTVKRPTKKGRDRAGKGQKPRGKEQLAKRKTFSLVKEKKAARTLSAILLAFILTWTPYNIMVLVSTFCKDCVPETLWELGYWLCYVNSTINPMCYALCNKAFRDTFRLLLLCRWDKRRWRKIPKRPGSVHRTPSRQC
Procedure: as §1

[5] = target: T5, Thyrotopin Releasing Hormone 1 (TRH1) Receptor (Homo sapiens, UniProt P34981)
T5 construct: gene TRHR
T5 sequence (P34981 1-398): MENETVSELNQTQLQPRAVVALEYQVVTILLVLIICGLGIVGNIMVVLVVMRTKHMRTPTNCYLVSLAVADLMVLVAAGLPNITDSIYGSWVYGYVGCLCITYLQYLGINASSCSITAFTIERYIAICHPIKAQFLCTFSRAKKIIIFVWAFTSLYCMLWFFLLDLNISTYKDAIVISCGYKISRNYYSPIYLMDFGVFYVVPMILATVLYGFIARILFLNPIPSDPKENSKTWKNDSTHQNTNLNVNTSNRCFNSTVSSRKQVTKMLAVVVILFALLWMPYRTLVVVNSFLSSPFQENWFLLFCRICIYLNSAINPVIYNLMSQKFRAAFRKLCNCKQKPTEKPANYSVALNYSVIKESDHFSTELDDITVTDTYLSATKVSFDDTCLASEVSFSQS
Procedure: as §1

[6] = target: T6, Histamine H3 (Homo sapiens, UniProt Q9Y5N1); conditions: agonist
T6 construct: gene HRH3
Procedure: as §1

[7] = target: T7, Serotonin 5-HT1b Receptor (Homo sapiens, UniProt P28222); conditions: agonist
T7 construct: gene HTR1B
Procedure: as §1

[8] = target: T8, Adrenergic Alpha 1a Adrenoceptor (Homo sapiens, UniProt P35348)
T8 construct: gene ADRA1A
T8 sequence (P35348 1-466): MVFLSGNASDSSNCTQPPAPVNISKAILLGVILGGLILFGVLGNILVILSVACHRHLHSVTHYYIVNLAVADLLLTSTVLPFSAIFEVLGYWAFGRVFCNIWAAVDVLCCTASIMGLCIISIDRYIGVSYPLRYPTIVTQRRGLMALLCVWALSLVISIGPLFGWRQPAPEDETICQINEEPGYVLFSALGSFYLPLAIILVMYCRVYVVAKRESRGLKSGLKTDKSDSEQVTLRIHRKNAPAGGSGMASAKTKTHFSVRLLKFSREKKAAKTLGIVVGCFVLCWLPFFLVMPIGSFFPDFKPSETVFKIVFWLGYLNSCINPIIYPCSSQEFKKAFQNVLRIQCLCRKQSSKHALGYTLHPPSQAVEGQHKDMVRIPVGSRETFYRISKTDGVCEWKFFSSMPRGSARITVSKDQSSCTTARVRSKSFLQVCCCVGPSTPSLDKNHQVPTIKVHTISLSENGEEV
Procedure: as §1

[9] = target: T9, Adrenergic Beta 2 Adrenoceptor (Homo sapiens, UniProt P07550)
T9 construct: gene ADRB2
Procedure: as §1

[10] = target: T10, Melanocortin MC2 Receptor (Homo sapiens, UniProt Q01718)
T10 construct: gene MC2R
Procedure: as §1

[11] = target: T11, Muscarinic 3 (Homo sapiens, UniProt P20309)
T11 construct: gene CHRM3
Procedure: as §1

[12] = target: T12, Adenosine A2a Receptor (Homo sapiens, UniProt P29274); conditions: agonist
T12 construct: gene ADORA2A
Procedure: as §1

[13] = target: T13, Neurokinin Nk1 (Homo sapiens, UniProt P25103); conditions: agonist
T13 construct: gene TACR1
Procedure: as §1

[14] = target: T14, Serotonin 5-HT4e (Homo sapiens, UniProt Q13639); conditions: agonist
T14 construct: gene HTR4; isoform 4e
Procedure: as §1

T11 sequence (P20309 whole entry): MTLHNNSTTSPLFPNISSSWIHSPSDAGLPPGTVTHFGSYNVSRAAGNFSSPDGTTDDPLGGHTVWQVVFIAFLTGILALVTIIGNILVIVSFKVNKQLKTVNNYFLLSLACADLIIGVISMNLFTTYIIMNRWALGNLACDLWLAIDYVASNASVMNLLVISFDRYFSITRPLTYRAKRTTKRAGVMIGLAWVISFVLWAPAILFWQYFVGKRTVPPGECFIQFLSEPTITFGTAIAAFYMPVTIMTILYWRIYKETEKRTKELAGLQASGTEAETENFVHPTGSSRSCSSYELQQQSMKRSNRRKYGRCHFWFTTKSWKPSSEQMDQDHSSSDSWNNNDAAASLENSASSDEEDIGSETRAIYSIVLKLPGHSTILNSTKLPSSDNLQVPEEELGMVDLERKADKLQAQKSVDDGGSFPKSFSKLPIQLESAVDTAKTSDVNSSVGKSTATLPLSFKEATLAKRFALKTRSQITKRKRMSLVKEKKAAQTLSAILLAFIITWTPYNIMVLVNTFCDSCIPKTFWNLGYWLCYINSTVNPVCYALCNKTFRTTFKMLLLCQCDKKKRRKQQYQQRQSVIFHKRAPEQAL
T1 sequence (P21554 whole entry): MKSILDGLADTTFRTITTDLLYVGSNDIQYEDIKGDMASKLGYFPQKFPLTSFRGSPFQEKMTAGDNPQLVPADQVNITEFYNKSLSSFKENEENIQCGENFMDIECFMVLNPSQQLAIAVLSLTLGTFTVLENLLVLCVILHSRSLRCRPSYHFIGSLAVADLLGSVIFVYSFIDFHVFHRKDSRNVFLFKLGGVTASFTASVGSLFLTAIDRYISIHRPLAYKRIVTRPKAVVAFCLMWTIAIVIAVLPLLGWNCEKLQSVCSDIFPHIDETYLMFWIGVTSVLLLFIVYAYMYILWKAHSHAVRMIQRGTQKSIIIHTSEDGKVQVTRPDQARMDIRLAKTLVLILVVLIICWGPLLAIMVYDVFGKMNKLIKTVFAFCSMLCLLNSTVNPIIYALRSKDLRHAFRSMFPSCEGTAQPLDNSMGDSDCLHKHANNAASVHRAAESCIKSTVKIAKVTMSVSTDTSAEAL
T10 sequence (Q01718 whole entry): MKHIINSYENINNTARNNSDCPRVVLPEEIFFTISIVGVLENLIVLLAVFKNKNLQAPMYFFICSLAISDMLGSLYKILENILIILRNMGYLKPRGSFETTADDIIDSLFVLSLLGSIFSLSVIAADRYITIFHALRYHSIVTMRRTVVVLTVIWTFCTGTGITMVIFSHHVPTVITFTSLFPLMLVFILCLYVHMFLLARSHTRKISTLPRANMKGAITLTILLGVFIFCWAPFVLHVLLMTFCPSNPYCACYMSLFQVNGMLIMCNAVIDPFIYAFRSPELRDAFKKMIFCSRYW
T9 sequence (P07550 whole entry): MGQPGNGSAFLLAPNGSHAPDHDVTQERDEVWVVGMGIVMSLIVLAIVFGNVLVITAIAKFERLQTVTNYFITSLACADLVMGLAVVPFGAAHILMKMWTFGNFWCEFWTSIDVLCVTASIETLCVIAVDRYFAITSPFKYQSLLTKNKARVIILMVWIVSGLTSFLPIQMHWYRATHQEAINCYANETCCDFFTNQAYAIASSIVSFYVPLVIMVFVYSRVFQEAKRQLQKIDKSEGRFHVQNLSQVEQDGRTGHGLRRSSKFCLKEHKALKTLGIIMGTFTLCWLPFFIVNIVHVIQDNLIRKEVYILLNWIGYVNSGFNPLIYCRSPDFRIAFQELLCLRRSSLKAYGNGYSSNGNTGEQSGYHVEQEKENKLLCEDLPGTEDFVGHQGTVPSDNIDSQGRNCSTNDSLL
T2 sequence (P08908 whole entry): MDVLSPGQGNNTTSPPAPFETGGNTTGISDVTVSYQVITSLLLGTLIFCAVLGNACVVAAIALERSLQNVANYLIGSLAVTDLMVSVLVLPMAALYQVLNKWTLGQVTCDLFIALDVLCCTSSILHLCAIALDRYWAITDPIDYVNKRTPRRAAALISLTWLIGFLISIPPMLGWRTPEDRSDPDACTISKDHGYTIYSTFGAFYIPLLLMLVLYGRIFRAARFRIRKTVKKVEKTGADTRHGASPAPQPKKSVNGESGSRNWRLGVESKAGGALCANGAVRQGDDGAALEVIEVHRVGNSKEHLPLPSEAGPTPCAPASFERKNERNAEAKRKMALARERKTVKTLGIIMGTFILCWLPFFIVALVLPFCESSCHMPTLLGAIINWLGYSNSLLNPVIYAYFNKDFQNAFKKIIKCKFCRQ
T3 sequence (P32239 whole entry): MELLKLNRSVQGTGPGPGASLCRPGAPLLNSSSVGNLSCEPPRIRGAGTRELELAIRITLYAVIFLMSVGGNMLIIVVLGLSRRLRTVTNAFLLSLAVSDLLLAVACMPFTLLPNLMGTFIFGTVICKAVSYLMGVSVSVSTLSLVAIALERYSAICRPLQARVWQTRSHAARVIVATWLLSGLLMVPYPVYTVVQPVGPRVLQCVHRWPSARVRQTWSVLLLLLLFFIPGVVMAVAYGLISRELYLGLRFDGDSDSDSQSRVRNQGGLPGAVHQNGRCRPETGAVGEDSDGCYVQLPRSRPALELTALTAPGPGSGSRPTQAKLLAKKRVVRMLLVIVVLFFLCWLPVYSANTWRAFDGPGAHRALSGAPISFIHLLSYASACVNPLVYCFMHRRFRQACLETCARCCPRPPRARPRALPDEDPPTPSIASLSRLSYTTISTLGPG
T12 sequence (P29274 whole entry): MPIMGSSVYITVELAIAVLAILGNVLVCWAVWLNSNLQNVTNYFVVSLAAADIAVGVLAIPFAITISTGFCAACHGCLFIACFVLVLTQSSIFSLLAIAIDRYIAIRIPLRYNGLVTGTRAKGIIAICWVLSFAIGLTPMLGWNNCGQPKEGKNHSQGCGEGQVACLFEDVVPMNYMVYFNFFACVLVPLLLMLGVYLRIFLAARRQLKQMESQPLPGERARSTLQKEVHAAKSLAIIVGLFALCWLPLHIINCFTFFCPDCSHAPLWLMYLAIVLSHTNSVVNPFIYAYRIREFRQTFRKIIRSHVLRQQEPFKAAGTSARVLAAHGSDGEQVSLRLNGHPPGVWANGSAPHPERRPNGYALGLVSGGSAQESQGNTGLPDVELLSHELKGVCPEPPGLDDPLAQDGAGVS
T13 sequence (P25103 whole entry): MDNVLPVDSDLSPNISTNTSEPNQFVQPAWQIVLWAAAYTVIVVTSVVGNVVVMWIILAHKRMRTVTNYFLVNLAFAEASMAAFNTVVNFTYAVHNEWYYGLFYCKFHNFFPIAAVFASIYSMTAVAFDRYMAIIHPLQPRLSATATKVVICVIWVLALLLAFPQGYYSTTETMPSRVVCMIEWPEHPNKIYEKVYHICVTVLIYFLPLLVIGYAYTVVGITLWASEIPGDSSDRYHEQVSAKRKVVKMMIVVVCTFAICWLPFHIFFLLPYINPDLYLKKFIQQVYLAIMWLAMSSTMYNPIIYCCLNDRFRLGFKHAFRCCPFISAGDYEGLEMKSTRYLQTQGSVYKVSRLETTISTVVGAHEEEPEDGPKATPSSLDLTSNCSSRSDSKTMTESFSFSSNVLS
T6 sequence (Q9Y5N1 whole entry): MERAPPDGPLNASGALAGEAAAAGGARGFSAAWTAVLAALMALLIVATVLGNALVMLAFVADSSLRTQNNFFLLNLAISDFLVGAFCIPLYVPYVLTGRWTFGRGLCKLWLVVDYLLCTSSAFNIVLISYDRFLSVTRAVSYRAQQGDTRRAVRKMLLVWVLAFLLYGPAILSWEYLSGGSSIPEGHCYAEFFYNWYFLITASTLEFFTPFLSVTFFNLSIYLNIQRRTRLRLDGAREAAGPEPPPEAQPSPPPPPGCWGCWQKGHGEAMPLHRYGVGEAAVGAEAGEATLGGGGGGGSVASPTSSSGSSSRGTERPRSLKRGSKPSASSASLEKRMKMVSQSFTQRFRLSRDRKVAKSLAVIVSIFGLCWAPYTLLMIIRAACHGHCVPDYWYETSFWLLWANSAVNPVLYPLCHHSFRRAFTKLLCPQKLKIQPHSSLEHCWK
T7 sequence (P28222 whole entry): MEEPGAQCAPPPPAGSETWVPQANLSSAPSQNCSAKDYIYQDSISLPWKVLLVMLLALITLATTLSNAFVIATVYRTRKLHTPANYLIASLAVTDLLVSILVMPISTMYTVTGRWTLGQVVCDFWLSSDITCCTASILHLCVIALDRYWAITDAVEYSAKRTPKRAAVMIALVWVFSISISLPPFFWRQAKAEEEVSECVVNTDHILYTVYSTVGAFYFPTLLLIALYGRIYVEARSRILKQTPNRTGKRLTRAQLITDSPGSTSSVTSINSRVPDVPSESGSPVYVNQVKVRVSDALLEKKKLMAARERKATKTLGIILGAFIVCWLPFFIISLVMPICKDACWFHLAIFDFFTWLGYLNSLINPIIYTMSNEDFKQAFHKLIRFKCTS
T14 sequence (Q13639 whole entry, canonical isoform): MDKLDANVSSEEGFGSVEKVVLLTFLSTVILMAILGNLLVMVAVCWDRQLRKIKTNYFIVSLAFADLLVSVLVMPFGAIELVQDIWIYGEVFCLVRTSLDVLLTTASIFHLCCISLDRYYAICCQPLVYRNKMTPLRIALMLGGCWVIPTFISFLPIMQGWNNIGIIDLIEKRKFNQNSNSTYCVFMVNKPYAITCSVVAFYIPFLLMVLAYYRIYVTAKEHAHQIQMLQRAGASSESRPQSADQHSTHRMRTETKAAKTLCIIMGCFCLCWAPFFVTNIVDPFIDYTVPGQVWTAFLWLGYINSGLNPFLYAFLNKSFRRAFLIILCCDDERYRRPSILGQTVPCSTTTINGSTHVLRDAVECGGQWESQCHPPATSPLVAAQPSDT

O=C(O)c1sc2cc(F)sc2c1Cl [PF-07208254, 3-chloro-5-fluorothieno[3,2-b]thiophene-2-carboxylic acid]
% (agonism) PF-07208254 ([1]; 100 µM, agonist): 55% | % Inhibition (antagonism) PF-07208254 ([1]; 100 µM, antagonist): -10% | % (agonism) PF-07208254 ([2]; 100 µM): -1% | % (agonism) PF-07208254 ([3]; 100 µM): 0% | % (agonism) PF-07208254 ([4]; 100 µM, agonist): -1% | % Inhibition (antagonism) PF-07208254 ([4]; 100 µM, antagonist): 0% | % (agonism) PF-07208254 ([5]; 100 µM, agonist): 4% | % Inhibition (antagonism) PF-07208254 ([5]; 100 µM, antagonist): -5% | % (agonism) PF-07208254 ([6]; 100 µM): 15% | % (agonism) PF-07208254 ([7]; 100 µM): 39% | % (agonism) PF-07208254 ([8]; 100 µM, agonist): 8% | % Inhibition (antagonism) PF-07208254 ([8]; 100 µM, antagonist): 21% | % (agonism) PF-07208254 ([9]; 100 µM, agonist): -5% | % Inhibition (antagonism) PF-07208254 ([9]; 100 µM, antagonist): 10% | % (agonism) PF-07208254 ([10]; 100 µM, agonist): 0% | % Inhibition (antagonism) PF-07208254 ([10]; 100 µM, antagonist): -4% | % (agonism) PF-07208254 ([11]; 100 µM, agonist): 0% | % Inhibition (antagonism) PF-07208254 ([11]; 100 µM, antagonist): 18% | % (agonism) PF-07208254 ([12]; 100 µM): 0% | % (agonism) PF-07208254 ([13]; 100 µM): -3% | % (agonism) PF-07208254 ([14]; 100 µM): 6%

CCC1(COc2ccc(-c3csc(-c4ccccc4C(=O)O)n3)cn2)CC1 [PF-07247685, 2-(4-{6-[(1-ethylcyclopropyl)methoxy]pyridin-3-yl}-1,3-thiazol-2-yl)benzoic acid]
% (agonism) PF-07247685 ([1]; 10 µM, agonist): 39% | % Inhibition (antagonism) PF-07247685 ([1]; 10 µM, antagonist): -4% | % (agonism) PF-07247685 ([2]; 10 µM): -1% | % (agonism) PF-07247685 ([3]; 10 µM): -8% | % (agonism) PF-07247685 ([4]; 10 µM, agonist): 1% | % Inhibition (antagonism) PF-07247685 ([4]; 10 µM, antagonist): 9% | % (agonism) PF-07247685 ([5]; 10 µM, agonist): 4% | % Inhibition (antagonism) PF-07247685 ([5]; 10 µM, antagonist): 10% | % (agonism) PF-07247685 ([6]; 10 µM): 4% | % (agonism) PF-07247685 ([7]; 10 µM): 34% | % (agonism) PF-07247685 ([8]; 10 µM, agonist): 1% | % Inhibition (antagonism) PF-07247685 ([8]; 10 µM, antagonist): 14% | % (agonism) PF-07247685 ([9]; 10 µM, agonist): -6% | % Inhibition (antagonism) PF-07247685 ([9]; 10 µM, antagonist): 3% | % (agonism) PF-07247685 ([10]; 10 µM, agonist): 0% | % Inhibition (antagonism) PF-07247685 ([10]; 10 µM, antagonist): 18% | % (agonism) PF-07247685 ([11]; 10 µM, agonist): -1% | % Inhibition (antagonism) PF-07247685 ([11]; 10 µM, antagonist): 3% | % (agonism) PF-07247685 ([12]; 10 µM): 1% | % (agonism) PF-07247685 ([13]; 10 µM): -4% | % (agonism) PF-07247685 ([14]; 10 µM): 0%

Source: PMC10412597, “Small molecule branched-chain ketoacid dehydrogenase kinase (BDK) inhibitors with opposing effects on BDK protein levels” (Nature Communications, 2023)
